{
  "source": "paper PMC13168289",
  "about": "“Potent acridone antimalarial against all three life stages of Plasmodium” (Nature Communications, 2026)",
  "key": {"[1]": {"system": "blood-stage P. yoelii", "experiment": "single-dose cure murine model, oral", "type": "in vivo, P. yoelii in CF1 mice", "source_text": "Animals were housed at the VAPORHCS in Thoren Maxi-Miser microisolator cages (78 sq. in. floor space) with a maximum density of five females or four males per cage. Cages were maintained on a 12-h light/dark cycle and provided with autoclaved nesting materials (nestlets) for environmental enrichment. All mice had ad libitum access to food and water. Four- to five-week-old female and male outbred CF1 mice (Charles River Laboratories, Raleigh, NC, USA) were randomly assigned to treatment and control groups using a simple randomization procedure (e.g., computer-generated random numbers) to ensure balanced distribution of baseline body weights and starting parasitemia levels across all cohorts. Groups of four mice (n = 4, mean body weight of each group was ~30 g) were infected intravenously with 3.5 × 10^4 P. yoelii (Kenya strain, MRA-428) from a donor animal. Drug administration commenced the day after the animals were inoculated (Day 1). The test drug or the drug combination was dissolved in PEG-400 and administered by oral gavage once daily for 4 successive days in the 4-day suppression model, but only once on Day 1 in the single-dose cure model. Blood was collected via the tail vein with the aid of a syringe needle on Day 5 and then at weekly intervals through Day 28. Blood films were Giemsa-stained and examined microscopically to determine the level of parasitemia. All mice were observed daily to assess clinical signs. Animals with observable parasitemia following the experiments were euthanized; animals cleared of parasitemia from their bloodstream were observed daily with assessment of parasitemia performed weekly until Day 28, at which point, the animal(s) were scored as cured of the infection and then humanely euthanized. All treated mice with a negative smear on Day 28 were considered cured (100% protection). […]"}, "[2]": {"system": "Salmonella typhimurium TA98 and TA100", "experiment": "Ames assay", "type": "cell-based", "details": "10 µM; TA98 and TA100, with and without S9 activation", "experimental": "Mutagenicity was assessed using the Ames assay[54] (EBPI, Ontario, Canada) against S. typhimurium TA100 and TA98, with and without S9 activation. The tester strain S. typhimurium (TA100 and TA98) cultures were inoculated from the lyophilized pellets and grown in nutrient broth provided by EBPI. Each inoculated vial (5 mL volume with antibiotics) was placed overnight in the incubator at 37 °C. The positive controls for the assay were 1.0 µg/µL 2-aminoanthracene (2-AA) for incubations with the S9 mix and 5 µg/mL sodium azide (NaN3, used for TA100) and 300 µg/mL 2-nitrofluorene (2NF, used for TA98) for incubations without the S9 mix. […] An aliquot (0.2 mL) of the mixture was then added to each well of a 96-well plate. The 96-well plates were covered, sealed in zip-lock bags, and incubated for 5 days at 37 °C. Plates were scored visually, and the positive wells against background mutations were statistically analyzed."}, "[3]": {"system": "normal and G6PD-deficient RBCs", "experiment": "eryptosis assay (annexin-V binding, ROS, forward scatter)", "type": "cell-based, human", "details": "48 h incubation", "experimental": "In vitro evaluation of eryptosis as a marker for induced hemolytic toxicity was performed using de-identified human blood samples obtained from the Clinical Trial Center at WRAIR, using established methods[55],[81],[82]. Fresh Li-heparin-anticoagulated blood samples was centrifuged and the platelet and leukocyte-containing supernatant was removed. […] Flow cytometry was employed to estimate stimulators of eryptosis: phosphatidylserine exposure at the cell surface from annexin-V-binding, reactive oxygen species (ROS) formation from 2′,7′-dichlorodihydrofluorescein diacetate (DCFDA) dependent fluorescence, and cell volume from forward scatter. […]\nAfter incubation under the respective experimental condition, cell suspension was washed in Ringer solution containing CaCl2 and then stained with Annexin-V-FITC at 37 °C for 15 min under protection from light. The annexin-V-abundance at the erythrocyte surface was subsequently determined on a FACS Calibur. Annexin-V-binding was measured at an excitation wavelength of 488 nm and an emission wavelength of 530 nm. […]\nOxidative stress was determined utilizing DCFDA. […] The DCFDA-loaded erythrocytes were resuspended in Ringer solution and ROS-dependent fluorescence intensity was measured at an excitation wavelength of 488 nm and an emission wavelength of 530 nm on a FACS Calibur. Subsequently, the geomean of the DCFDA dependent fluorescence was determined. […]"}},
  "note": "Values joined by “and” are separate entries in the source; they are usually repeats but may differ in a detail not shown here. Equal values may be shown once.",
  "data": [
    {"smiles": "O=c1c2ccc(Oc3ccc(OC(F)(F)F)cc3)cc2[nH]c2cc(Cl)cc(F)c12", "note": "[T111]", "values": [
      {"measurement": "% survival through Day 28", "setting": "[1]; TQ 0 + T111 20 mg/kg", "value": 0, "unit": "%"},
      {"measurement": "number of mice cured on Day 28", "setting": "[1]; TQ 0 + T111 20 mg/kg", "value": "0/4"},
      {"measurement": "parasitemia burden on Day 5", "setting": "[1]; TQ 0 + T111 20 mg/kg", "value": 0},
      {"measurement": "% survival through Day 28", "setting": "[1]; TQ 0 + T111 30 mg/kg", "value": 0, "unit": "%"},
      {"measurement": "number of mice cured on Day 28", "setting": "[1]; TQ 0 + T111 30 mg/kg", "value": "0/4"},
      {"measurement": "parasitemia burden on Day 5", "setting": "[1]; TQ 0 + T111 30 mg/kg", "value": 0},
      {"measurement": "% survival through Day 28", "setting": "[1]; TQ 0 + T111 40 mg/kg", "value": 25, "unit": "%"},
      {"measurement": "parasitemia burden on Day 5", "setting": "[1]; TQ 0 + T111 40 mg/kg", "value": 0},
      {"measurement": "number of mice cured on Day 28", "setting": "[1]; TQ 0 + T111 40 mg/kg, 40 mg/kg", "value": "One of four mice and 1/4"},
      {"measurement": "% survival through Day 28", "setting": "[1]; TQ 0 + T111 50 mg/kg", "value": 100, "unit": "%"},
      {"measurement": "parasitemia burden on Day 5", "setting": "[1]; TQ 0 + T111 50 mg/kg", "value": 0},
      {"measurement": "number of mice cured on Day 28", "setting": "[1]; TQ 0 + T111 50 mg/kg, 50 mg/kg", "value": "all of four mice and single-dose cure in all treated mice and 4/4"},
      {"measurement": "Ames test result", "setting": "[2]", "value": "negative"},
      {"measurement": "eryptosis as marker of hemolytic toxicity", "setting": "[3]", "value": "did not show the toxicity seen with TQ"}
    ]}
  ]
}
